Experimental data from ChEMBL document CHEMBL4130638, “Discovery of the Polyamine Conjugate with Benzo[ cd]indol-2(1 H)-one as a Lysosome-Targeted Antimetastatic Agent” (J Med Chem, 2018).
Activity calls are given as the source filed them. The calls are words filed in the database; no cut-off is given here.

What was measured:
CT26 [1] = assay: Induction of apoptosis in mouse CT26 cells assessed as late apoptotic cells at 10 uM after 24 hrs by annexin V-FITC/propidium iodide staining based flow cytometry (reference value: 2.26%); assay type: functional
HCT-116 [2] = assay: Induction of apoptosis in human HCT116 cells assessed as early apoptotic cells at 10 uM after 24 hrs in presence of pan-caspase inhibitor Z-VAD-FMK by annexin V-FITC/propidium iodide staining based flow cytometry (reference value: 4.1%); assay type: functional
CT26 [3] = assay: Induction of apoptosis in mouse CT26 cells assessed as live cells at 10 uM after 24 hrs by annexin V-FITC/propidium iodide staining based flow cytometry (reference value: 89.47%); assay type: functional
CT26 [4] = assay: Growth inhibition of mouse CT26 cells after 24 hrs by MTT assay; assay type: functional, cell-based
HCT-116 [5] = assay: Downregulation of beta-catenin protein expression in human HCT116 cells after 24 hrs by Western blot method; assay type: functional, cell-based
CT26 [6] = assay: Induction of apoptosis in mouse CT26 cells assessed as late apoptotic cells after 24 hrs by annexin V-FITC/propidium iodide staining based flow cytometry; assay type: functional, cell-based
HCT-116 [7] = assay: Induction of autophagy in human HCT116 cells at 5 to 20 uM after 24 hrs in presence of pan-caspase inhibitor Z-VAD-FMK by Lyso staining based flow cytometry; assay type: functional, cell-based
CT26 [8] = assay: Induction of apoptosis in mouse CT26 cells assessed as necrotic cells at 10 uM after 24 hrs by annexin V-FITC/propidium iodide staining based flow cytometry (reference value: 4.36%); assay type: functional
HCT-116 [9] = assay: Antimigratory activity against human HCT116 cells after 24 hrs by crystal violet staining based transwell assay; assay type: functional, cell-based
HCT-116 [10] = assay: Downregulation of Akt protein expression in human HCT116 cells up to 10 uM after 24 hrs by Western blot method; assay type: functional, cell-based
CT26 [11] = assay: Induction of autophagy in mouse CT26 cells at 10 to 20 uM after 24 hrs in presence of autophagy inhibitor 3-MA by MDC staining based flow cytometry; assay type: functional, cell-based
Mus musculus [12] = assay: Toxicity in Balb/c mouse implanted with mouse CT26 cells assessed as increase in heart weight at 1 mg/kg, iv for 14 consecutive days starting from day 8 post tumor implantation; assay type: organism-based; conditions: in vivo
CT26 [13] = assay: Induction of apoptosis in mouse CT26 cells assessed as early apoptotic cells at 10 uM after 24 hrs by annexin V-FITC/propidium iodide staining based flow cytometry (reference value: 3.91%); assay type: functional
HCT-116 [14] = assay: Upregulation of cleaved caspase-8 protein expression in human HCT116 cells up to 10 uM after 24 hrs in presence of autophagy inhibitor 3-MA by Western blot method; assay type: functional, cell-based
HCT-116 [15] = assay: Downregulation of cathepsin-D protein expression in human HCT116 cells after 24 hrs by Western blot method; assay type: functional, cell-based
CT26 [16] = assay: Induction of autophagy in mouse CT26 cells at 5 to 20 uM after 24 hrs by Lyso staining based flow cytometry; assay type: functional, cell-based
HCT-116 [17] = assay: Induction of autophagy in human HCT116 cells after 24 hrs by MDC staining based flow cytometry; assay type: functional, cell-based
HCT-116 [18] = assay: Induction of apoptosis in human HCT116 cells assessed as late apoptotic cells after 24 hrs by annexin V-FITC/propidium iodide staining based flow cytometry; assay type: functional, cell-based
CT26 [19] = assay: Induction of autophagy in mouse CT26 cells after 24 hrs by MDC staining based flow cytometry; assay type: functional, cell-based
HCT-116 [20] = assay: Induction of apoptosis in human HCT116 cells assessed as necrotic cells at 10 uM after 24 hrs by annexin V-FITC/propidium iodide staining based flow cytometry (reference value: 3.9%); assay type: functional
[21] = Drug uptake in human HCT116 cells by confocal microscopic method; assay type: ADME, cell-based; conditions: hct-116
HCT-116 [22] = assay: Upregulation of cleaved caspase-8 protein expression in human HCT116 cells up to 10 uM after 24 hrs by Western blot method; assay type: functional, cell-based
HCT-116 [23] = assay: Upregulation of SSAT protein expression in human HCT116 cells at 2.5 to 10 uM after 24 hrs by Western blot method; assay type: functional, cell-based
HCT-116 [24] = assay: Downregulation of MMP2 protein expression in human HCT116 cells after 24 hrs by Western blot method; assay type: functional, cell-based
HCT-116 [25] = assay: Induction of apoptosis in human HCT116 cells assessed as live cells at 10 uM after 24 hrs in presence of autophagy inhibitor 3-MA by annexin V-FITC/propidium iodide staining based flow cytometry (reference value: 89.97%); assay type: functional
CT26 [26] = assay: Antitumor activity against mouse CT26 cells implanted in Balb/c mouse assessed as solid tumor growth inhibition at 1 mg/kg, iv for 14 consecutive days measured on day 15 relative to control; assay type: functional; conditions: 360 h, read-out: TGI
CT26 [27] = assay: Induction of apoptosis in mouse CT26 cells assessed as late apoptotic cells at 10 uM after 24 hrs in presence of autophagy inhibitor 3-MA by annexin V-FITC/propidium iodide staining based flow cytometry (reference value: 2.26%); assay type: functional
HCT-116 [28] = assay: Upregulation of LAMP2 protein expression in human HCT116 cells at 10 uM after 24 hrs by Western blot method; assay type: functional, cell-based
HCT-116 [29] = assay: Downregulation of Bcl2 protein expression in human HCT116 cells up to 10 uM after 24 hrs by Western blot method; assay type: functional, cell-based
HCT-116 [30] = assay: Upregulation of cleaved caspase-3 protein expression in human HCT116 cells up to 10 uM after 24 hrs by Western blot method; assay type: functional, cell-based
Mus musculus [31] = assay: Toxicity in Balb/c mouse implanted with mouse CT26 cells assessed as increase in spleen weight at 1 mg/kg, iv for 7 consecutive days starting from day 8 post tumor implantation; assay type: organism-based; conditions: in vivo
HCT-116 [32] = assay: Induction of apoptosis in human HCT116 cells assessed as early apoptotic cells at 10 uM after 24 hrs by annexin V-FITC/propidium iodide staining based flow cytometry (reference value: 4.1%); assay type: functional
Mus musculus [33] = assay: Toxicity in Balb/c mouse implanted with mouse CT26 cells assessed as increase in spleen weight at 1 mg/kg, iv for 14 consecutive days starting from day 8 post tumor implantation; assay type: organism-based; conditions: in vivo
[34] = Drug uptake in lysosomes isolated from human HCT116 cells at 10 uM after 8 hrs by Lyso-tracker staining based confocal microscopic method; assay type: ADME, subcellular, Lysosome; conditions: hct-116, 8 h
HCT-116 [35] = assay: Downregulation of Akt protein expression in human HCT116 cells up to 10 uM after 24 hrs in presence of autophagy inhibitor 3-MA by Western blot method; assay type: functional, cell-based
SMMC-7721 = assay: Growth inhibition of human SMMC7721 cells after 48 hrs by MTT assay; assay type: functional, cell-based; conditions: SMMC-7721, 48 h
CT26 [36] = assay: Induction of autophagy in mouse CT26 cells at 10 to 20 uM after 24 hrs in presence of autophagy inhibitor 3-MA by Lyso staining based flow cytometry; assay type: functional, cell-based
K562 = assay: Growth inhibition of human K562 cells after 48 hrs by MTT assay; assay type: functional, cell-based; conditions: K562, 48 h
HCT-116 [37] = assay: Decrease in putrescine level in human HCT116 cells at 2.5 to 10 uM after 24 hrs by G1321A fluorescence detector coupled HPLC analysis; assay type: functional, cell-based
HCT-116 [38] = assay: Induction of apoptosis in human HCT116 cells assessed as live cells at 10 uM after 24 hrs in presence of pan-caspase inhibitor Z-VAD-FMK by annexin V-FITC/propidium iodide staining based flow cytometry (reference value: 89.97%); assay type: functional

Compound: Cl.Cl.Cl.NCCCCNCCCCNCCCCN1C(=O)c2cccc3cccc1c23
- Activity (CT26 [1]): 23.22%
- Activity (HCT-116 [2]): 11.4%
- Activity (CT26 [3]): 30.85%
- growth inhibition (GI) (CT26 [4]): Dose-dependent effect
- IC50 (CT26 [4]; CT26, 24 h): 11.6 µM
- Activity (HCT-116 [5]): Dose-dependent effect
- Activity (CT26 [6]): Dose-dependent effect
- Activity (HCT-116 [7]): inactive
- Activity (CT26 [8]): 3.56%
- Activity (HCT-116 [9]): Dose-dependent effect
- Activity (HCT-116 [10]): Active
- Activity (CT26 [11]): inactive
- Activity (Mus musculus [12]): Toxic
- Activity (CT26 [13]): 42.37%
- Activity (HCT-116 [14]): inactive
- Activity (HCT-116 [15]): Dose-dependent effect
- Activity (CT26 [16]): Active
- Activity (HCT-116 [17]): Dose-dependent effect
- Activity (HCT-116 [18]): Dose-dependent effect
- Activity (CT26 [19]): Dose-dependent effect
- Activity (HCT-116 [20]): 2.97%
- Drug uptake [21]: Dose-dependent effect and Tde
- Activity (HCT-116 [22]): Active
- Activity (HCT-116 [23]): Dose-dependent effect
- Activity (HCT-116 [24]): Dose-dependent effect
- Activity (HCT-116 [25]): 56.54%
- inhibition in vivo at 1 mg/kg (CT26 [26]): 46.9%
- Activity (CT26 [27]): 6.59%
- Activity (HCT-116 [28]): Active
- Activity (HCT-116 [29]): Active
- Activity (HCT-116 [30]): Active
- Activity (Mus musculus [31]): Toxic
- Activity (HCT-116 [32]): 31.31%
- Activity (Mus musculus [33]): Toxic
- Drug uptake [34]: Active
- Activity (HCT-116 [35]): inactive
- IC50 (SMMC-7721): 13.5 µM
- Activity (CT26 [36]): inactive
- IC50 (K562): 12 µM
- Activity (HCT-116 [37]): inactive
- Activity (HCT-116 [38]): 66.87%
